Laboratory results as given in patent US8603986B2, “Compounds and methods for modulating cadherin-mediated processes” (McGill University, priority 2005, dated 2013).
Marks after values point to notes of the source that are not given here.

Legend:
[1] = test system: SKOV3 human ovarian cancer cells; assay: Disruption of SKOV3 cell adhesion in confluent cultures; format: cell-based; parameters: key to Peptide Disrupts Adhesion of SKOV3 cells: +: yes; −: no; settings: for Peptide Disrupts Adhesion of SKOV3 cells: Table 8 summary
Method: SKOV3 human ovarian cancer cells (kind gift from Dr. Riaz Farookhi, McGill University, Montreal, Quebec) were cultured in MEM containing 1.25 μg/ml Fungizone, 100 U/ml penicillin 100 μg/ml streptomycin, 0.1 mM nonessential amino acids, 2 mM L-glutamine, 10 μg/ml ml gentamicin and 10% fetal bovine serum. All culture reagents were purchased from GIBCO (Burlington, ON). To obtain confluent cell cultures, 100,000 cells per well were plated onto a 4 well slide (NalgeNunc, Naperville, Ill.) and incubated for 24 h at 37° C., in a humidified atmosphere (5% CO2).
(§1) Depending on their solubility, peptides were dissolved directly in culture medium and added to confluent cell cultures at the indicated concentration, or they were dissolved in dimethylformamide (DMF) to obtain a 100× concentrated solution or in water to obtain a 10× concentrated solution. The peptide stock solutions were further diluted with culture medium to a final working concentration and added to confluent cell cultures. Culture medium containing 1% solvent was used as a control. At the end of the treatment, cells were either examined by phase contrast microscopy, or fixed with 4% paraformaldehyde in PBS and stained with hematoxylin prior to light microscopic examination.
Confluent cultures of SKOV3 cells were incubated in the presence of individual peptides.

[2] = target: T1, N-cadherin/Fc chimeric protein (Homo sapiens, UniProt P19022); assay: Table 8 summary: peptide binds to N-cad/Fc; format: binding; parameters: key: +: yes; −: no
T1 construct: extracellular domain of human N-cadherin (Asp160-Ala724); purchased R&D Systems, Minneapolis, Minn
T1 sequence (P19022 160-724): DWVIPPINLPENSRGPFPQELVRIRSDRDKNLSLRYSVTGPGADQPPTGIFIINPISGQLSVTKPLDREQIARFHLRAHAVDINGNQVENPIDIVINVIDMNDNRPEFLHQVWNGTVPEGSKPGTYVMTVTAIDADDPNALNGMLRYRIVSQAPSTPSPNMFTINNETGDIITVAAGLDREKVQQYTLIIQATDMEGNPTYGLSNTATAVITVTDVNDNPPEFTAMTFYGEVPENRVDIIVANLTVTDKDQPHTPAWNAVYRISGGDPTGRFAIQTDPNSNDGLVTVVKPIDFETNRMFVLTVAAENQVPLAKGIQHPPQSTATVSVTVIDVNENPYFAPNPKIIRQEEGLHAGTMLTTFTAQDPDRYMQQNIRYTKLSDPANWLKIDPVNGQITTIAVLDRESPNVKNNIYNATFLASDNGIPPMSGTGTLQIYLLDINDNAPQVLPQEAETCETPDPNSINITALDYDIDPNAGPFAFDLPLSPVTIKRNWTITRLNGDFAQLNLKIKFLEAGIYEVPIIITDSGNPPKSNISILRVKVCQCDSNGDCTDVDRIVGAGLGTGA

[3] = target: T2, E-cadherin/Fc chimeric protein (Homo sapiens, UniProt P12830); assay: Table 8 summary: peptide binds to E-cad/Fc; format: binding; parameters: key: +: yes; −: no
T2 construct: extracellular domain of human E-cadherin (Asp155-Ile707); purchased R&D Systems, Minneapolis, Minn
T2 sequence (P12830 155-707): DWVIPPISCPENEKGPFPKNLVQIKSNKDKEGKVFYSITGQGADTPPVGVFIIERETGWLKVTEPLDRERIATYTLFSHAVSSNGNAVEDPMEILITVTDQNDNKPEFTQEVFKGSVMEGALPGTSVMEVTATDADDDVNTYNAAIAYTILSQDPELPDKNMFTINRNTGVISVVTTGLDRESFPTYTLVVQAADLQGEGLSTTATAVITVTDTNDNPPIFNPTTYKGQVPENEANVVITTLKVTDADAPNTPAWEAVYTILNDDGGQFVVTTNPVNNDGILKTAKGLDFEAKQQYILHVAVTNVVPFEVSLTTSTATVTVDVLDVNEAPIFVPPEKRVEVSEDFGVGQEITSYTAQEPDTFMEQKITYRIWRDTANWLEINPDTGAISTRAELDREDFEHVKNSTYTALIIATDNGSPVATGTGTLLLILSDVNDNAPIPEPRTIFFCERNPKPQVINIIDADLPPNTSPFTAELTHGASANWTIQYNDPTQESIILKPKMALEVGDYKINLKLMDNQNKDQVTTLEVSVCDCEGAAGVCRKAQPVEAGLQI

[4] = test system: MCF-7 human breast cancer cells; assay: Disruption of MCF-7 cell adhesion; format: cell-based; parameters: key to Peptide Disrupts Adhesion of MCF-7 cells: +: yes; −: no; settings: for Peptide Disrupts Adhesion of MCF-7 cells: Table 8 summary
Method: MCF-7 human breast cancer cells (kind gift from Dr. Riaz Farookhi, McGill University, Montreal, Quebec) were cultured in the same medium as SKOV3 but supplemented with 1 mM sodium pyruvate.
as §1

[5] = test system: Human Umbilical Vein Endothelial Cells (HUVEC); assay: Disruption of HUVEC adhesion; format: cell-based; parameters: key to Peptide Disrupts Adhesion of HUVEC: +: yes; −: no; settings: for Peptide Disrupts Adhesion of HUVEC: Table 8 summary
Method: (§2) Human Umbilical Vein Endothelial Cells (HUVEC) and Human Dermal Microvascular Endothelial Cells (HMVEC-d) were purchased from Cambrex Bio Science Walkersville, Inc. Clonetics EGM-2 and EGM-2-MV Bulletkits (Cambrex Bio Science Walkersville, Inc) were used to culture HUVEC and HMVEC-d respectively. Cells (40,000 per well) were plated onto a 4 well slide (NalgeNunc, Naperville, Ill.) and incubated at 37° C., in a humidified atmosphere (5% CO2).
as §1

[6] = target: T3, VE-cadherin/Fc chimeric protein (Homo sapiens, UniProt P33151); assay: Surface plasma resonance (Biacore) analysis on VE-cadherin/Fc; format: binding; settings: 100-1.56 uM
T3 construct: purchased R&D Systems, Minneapolis, Minn
T3 sequence (P33151 with tags, fused parts or gaps limits assumed, species assumed): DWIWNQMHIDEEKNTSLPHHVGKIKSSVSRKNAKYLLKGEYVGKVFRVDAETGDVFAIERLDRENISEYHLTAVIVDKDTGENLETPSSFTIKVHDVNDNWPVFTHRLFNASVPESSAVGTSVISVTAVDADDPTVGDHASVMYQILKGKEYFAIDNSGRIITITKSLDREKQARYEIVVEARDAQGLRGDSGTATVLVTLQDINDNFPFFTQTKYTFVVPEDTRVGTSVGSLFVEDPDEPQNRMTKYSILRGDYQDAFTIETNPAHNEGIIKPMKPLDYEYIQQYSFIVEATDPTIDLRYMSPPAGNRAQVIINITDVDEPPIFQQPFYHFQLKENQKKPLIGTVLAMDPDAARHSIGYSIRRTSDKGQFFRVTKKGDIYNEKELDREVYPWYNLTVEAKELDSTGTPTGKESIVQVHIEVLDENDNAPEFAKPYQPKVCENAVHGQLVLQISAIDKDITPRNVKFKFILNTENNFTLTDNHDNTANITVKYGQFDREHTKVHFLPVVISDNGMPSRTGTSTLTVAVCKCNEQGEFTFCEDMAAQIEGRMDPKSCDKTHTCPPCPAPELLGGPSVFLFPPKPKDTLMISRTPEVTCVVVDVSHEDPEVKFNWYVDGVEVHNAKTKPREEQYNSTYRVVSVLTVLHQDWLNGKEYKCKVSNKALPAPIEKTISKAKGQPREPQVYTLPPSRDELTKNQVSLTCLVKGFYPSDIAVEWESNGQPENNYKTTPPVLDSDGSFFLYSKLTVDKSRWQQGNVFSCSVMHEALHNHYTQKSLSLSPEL
Method: The binding of representative peptide modulating agents to either N- or VE-cadherin/Fc chimeric proteins was assessed using a BIAcore X™ Biosensor (Pharmacia Ltd., Sweden). Goat anti-human IgG recognizing N- and VE-cadherin/Fc chimeric proteins (R&D Systems, Minneapolis, Minn.) was immobilized on a CM5 sensor chip (Biacore S51) using standard amine-coupling method at 25° C. HBS-P buffer (10 mM HEPES, 0.15 M NaCl, 0.005% p20, pH 7.4) was used as the running buffer. The carboxymethyl dextran surface was activated with a 7 min injection of a 1:1 ratio of 0.4 M EDC and 0.1 M NHS. The goat anti-human IgG (Caltag Lab.) was coupled to the surface with a 7 min injection diluted in 10 mM sodium acetate, pH 5.0 to a final concentration 80 ug/ml. Remaining activated groups were blocked with a 7 min injection of 1 M ethanolamine, pH 8.5. N- and VE-cadherin/Fc chimeric proteins were dissolved in buffer containing 50 mM Tris HCl, 150 mM NaCl, and 1.2 mM CaCl2 pH 7.5 to a concentration of 0.2 μM and captured on spots 1 and 2 at a flow rate of 30 μl/min for 30 min with resulting density 927 RU for N-cadherin/Fc chimeric protein and 1008 RU for VE-cadherin/Fc chimeric protein. […]

[7] = test system: Human Dermal Microvascular Endothelial Cells (HMVEC-d); assay: Disruption of HMVEC adhesion; format: cell-based; parameters: key to Peptide Disrupts Adhesion of HMVEC: +: yes; −: no; settings: for Peptide Disrupts Adhesion of HMVEC: Table 8 summary
Method: as §2, §1

[8] = target: T1, N-cadherin/Fc chimeric protein; assay: Surface plasma resonance (Biacore) analysis on N-cadherin/Fc; format: binding
Method: The binding of representative peptide modulating agents to either N- or VE-cadherin/Fc chimeric proteins was assessed using a BIAcore X™ Biosensor (Pharmacia Ltd., Sweden). Goat anti-human IgG recognizing N- and VE-cadherin/Fc chimeric proteins (R&D Systems, Minneapolis, Minn.) was immobilized on a CM5 sensor chip (Biacore S51) using standard amine-coupling method at 25° C. HBS-P buffer (10 mM HEPES, 0.15 M NaCl, 0.005% p20, pH 7.4) was used as the running buffer. The carboxymethyl dextran surface was activated with a 7 min injection of a 1:1 ratio of 0.4 M EDC and 0.1 M NHS. The goat anti-human IgG (Caltag Lab.) was coupled to the surface with a 7 min injection diluted in 10 mM sodium acetate, pH 5.0 to a final concentration 80 ug/ml. Remaining activated groups were blocked with a 7 min injection of 1 M ethanolamine, pH 8.5. N- and VE-cadherin/Fc chimeric proteins were dissolved in buffer containing 50 mM Tris HCl, 150 mM NaCl, and 1.2 mM CaCl2 pH 7.5 to a concentration of 0.2 μM and captured on spots 1 and 2 at a flow rate of 30 μl/min for 30 min with resulting density 927 RU for N-cadherin/Fc chimeric protein and 1008 RU for VE-cadherin/Fc chimeric protein.
The linear peptide H-SWTLYTPSGQSK-NH2 (SEQ ID NO: 16) and the control linear peptide H-SRTLYTPSGQSK-NH2 (SEQ ID NO: 58) were passed over surfaces coated with captured N- and VE-cadherin/Fc chimeric proteins in running buffer containing 50 mM Tris-HCl, 150 mM NaCl, and 1.2 mM CaCl2, pH 7.5 at concentrations ranging from 100-1.56 uM. The experiment was performed at a flow rate 90 ul/min at 25° C. […] All responses were referenced for reference surface and blank injections of running buffer.

[9] = 1 mg/ml medium, up to 1 h incubation
[10] = confluent cultures, concentration not given

| Substance | Peptide Disrupts Adhesion of SKOV3 cells [1] | Peptide Binds to N-cad/Fc [2] | Peptide Binds to E-cad/Fc [3] | Peptide Disrupts Adhesion of MCF-7 cells [4] | effect on HUVEC adhesion [5, 9] | Peptide Disrupts Adhesion of HUVEC [5] | other results |
| --- | --- | --- | --- | --- | --- | --- | --- |
| H-EWMIHYDSALTS-NH2 | + | + | + | + |  |  | effect on SKOV3 cell adhesion ([1]; 1 mg/ml): disrupted; effect on MCF-7 cell adhesion ([4]; 1 mg/ml): disrupted |
| H-HWYITTGPVREK-NH2 |  | + | − |  | had no effect on HUVEC adhesion | − |  |
| H-SRTLYTPSGQSK-NH2 [reference compound] | − | − |  |  | had no biological activity | − | binding to VE-cadherin/Fc chimeric protein [6]: did not bind; effect on SKOV3 cell adhesion [1, 10]: had no effect; Peptide Disrupts Adhesion of HMVEC [7]: −; effect on HMVEC adhesion ([7]; highest concentration of 1 mg/ml): had no biological activity; binding to N-cadherin/Fc chimeric protein ([8]; 100-1.56 uM): did not bind |
| H-SWELYYPLRANL-NH2 | + | + | + | + |  |  | effect on SKOV3 cell adhesion ([1]; 1 mg/ml): disrupted; effect on MCF-7 cell adhesion ([4]; 1 mg/ml): disrupted |
| H-SWTLYTPSGQSK-NH2 [H-SWTLYTPSGQSK-NH2] | + | + | − | − | disrupted HUVEC adhesion | + | effect on HUVEC adhesion ([5]; 0.062 mg/ml, 1 h incubation): moderate activity; incubation time after which HUVEC adhesion was disrupted ([5]; 1 mg/ml medium): 5 min; incubation time of maximum effect on HUVEC adhesion ([5]; 1 mg/ml medium): 1 h; peptide concentrations disrupting HUVEC adhesion ([5]; after 1 h incubation, dose-dependent): ≥ 0.125 mg/mL; binding to VE-cadherin/Fc chimeric protein [6]: did not bind; effect on SKOV3 cell adhesion [1, 10]: disrupted SKOV3 cell adhesion; effect on HMVEC adhesion ([7]; 0.062 mg/ml): disrupted; effect on HMVEC adhesion ([7]; 0.125 mg/ml): more pronounced effects; effect on HMVEC adhesion ([7]; 0.5 mg/ml and higher): still stronger effects; Peptide Disrupts Adhesion of HMVEC [7]: +; Kd ([8]; 25° C., 1.2 mM CaCl2): 66 µM; kd ([8]; 25° C., 1.2 mM CaCl2): 0.407(8) s^−1; kon ([8]; pH 7.5, 25° C., 1.2 mM CaCl2, read-out: ka): 6100 M⁻¹ s⁻¹; effect on MCF-7 cell adhesion ([4]; concentration not given): did not affect MCF-7 cell adhesion |
| H-WELRVSSP-NH2 | + | + | − |  |  |  | effect on cell adhesion and cell morphology ([1]; 0.5 mg/ml, SKOV3 per b307 and Table 8): capable of disrupting cell adhesion and altering cell morphology |
| H-WYVCVGAH-NH2 | + | +# | −## | − |  |  | effect on SKOV3 cell adhesion and morphology ([1]; 100 and 150 μg/ml (tested 50, 100 and 150 μg/ml medium), 24 h): capable of disrupting cell adhesion and altering cell morphology; culture time after which the effect on SKOV3 cell adhesion was evident ([1]; more pronounced after 24 h): 9 h; effect on MCF-7 cell adhesion ([4]; 100 μg/ml): did not affect MCF-7 cell adhesion |
